This experiment deals with T1, California poppy LOX (purified LOX from California poppy seedlings; 9/13-LOX).
T1 construct: 85 kDa on SDS-PAGE
The experiment is described as follows: A234 spectrophotometry; Lineweaver-Burk. It is filed as biochemical, Eschscholzia californica. Particulars: 100 mM potassium phosphate pH 6.5, room temperature; 0.476-1.33 mM LA.

The structures appear in SMILES notation.

`CCCCC/C=C\C/C=C\CCCCCCCC(=O)O` [linoleic acid]: the Km (usually the concentration of substrate that gives half-maximal velocity) came to 2600 µM.

For the origin of these results see paper PMC6150234, “HPLC Analysis and Biochemical Characterization of LOX from Eschscholtzia californica Cham” (Molecules : A Journal of Synthetic Chemistry and Natural …, 2017).
